Measurements as given in article PMC4099364, “Comparing Binding Modes of Analogous Fragments Using NMR in Fragment-Based Drug Design: Application to PRDX5” (PLoS ONE, 2014).

Biological target: T1, human peroxiredoxin 5 (PRDX5) (Homo sapiens, UniProt P30044)
T1 construct: 6xHis-tagged, pQE-30, E. coli M15, 15N-labelled for HSQC; reduced with DTT
T1 sequence (P30044 54-214): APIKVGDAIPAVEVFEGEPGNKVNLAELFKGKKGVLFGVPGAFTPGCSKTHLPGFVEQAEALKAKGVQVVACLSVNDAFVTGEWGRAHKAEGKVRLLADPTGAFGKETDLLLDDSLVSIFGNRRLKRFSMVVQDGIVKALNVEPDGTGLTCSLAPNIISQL
Test: […]-HSQC NMR titration (combined CSP fit)
Assay type: binding

In the case of Oc1cccc(-c2ccccc2)c1O [compound 5, 2,3 dihydroxy-biphenyl], the Kd is reported as 390 ± 50 µM.
